Reference: ChEMBL document CHEMBL1201862, “PubChem BioAssay data set” (2004)
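Cultured in 96-well plates, cells were exposed to test compound for 48 hours across five concentrations. GI50: concentration for 50% inhibition of growth.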 The source made the active and inactive calls. No stated cut-off is given here; in the data, active = GI50 up to about 1.1 µM and inactive = higher.

Experiments:
Test in all cases: NCI tumour cell line growth inhibition, 48 h
[1] = test system: KM12
[2] = test system: SK-OV-3
[3] = test system: SNB-75
[4] = test system: SNB-19
[5] = test system: COLO 205
[6] = test system: NCI-H460
[7] = test system: UACC-257
[8] = test system: SK-MEL-5
[9] = test system: RPMI-8226
[10] = test system: SR
[11] = test system: PC-3
[12] = test system: TK-10
[13] = test system: MDA-MB-435
[14] = test system: NCI/ADR-RES
[15] = test system: SK-MEL-28
[16] = test system: Hs-578T
[17] = test system: MOLT-4
[18] = test system: UO-31
[19] = test system: CCRF-CEM
[20] = test system: SF-539

Measured: GI50

CCC1c2[nH]c3ccccc3c2C[C@H]2C(=O)NC(CCCCNC(=O)OC(C)(C)C)C(=O)N12 (stereo partly specified)
inactive: [1] 18.5 µM | [2] 55.8 µM | [3] 15.3 µM | [4] 44.2 µM | [5] 29.9 µM | [6] 30.1 µM | [7] 21.2 µM | [8] 20.7 µM | [9] 24.5 µM | [10] 24.8 µM | [11] 22.7 µM | [12] 33.6 µM | [13] 20.5 µM | [14] 25.7 µM | [15] 41.1 µM | [16] 19.7 µM | [17] 19.1 µM | [18] 34.6 µM

Oc1c(Br)cc(CN(Cc2cc(Br)c(O)c(Br)c2)C2CCCCC2)cc1Br
inactive: [1] > 100 µM | [2] > 100 µM | [3] > 100 µM | [4] > 100 µM | [5] > 100 µM | [19] > 100 µM | [7] > 100 µM | [8] > 100 µM | [9] > 100 µM | [10] > 100 µM | [11] > 100 µM | [12] > 100 µM | [13] > 100 µM | [14] > 100 µM | [15] > 100 µM | [16] > 100 µM | [17] > 100 µM | [18] > 100 µM

CC(=O)N1C=Cc2c(c(C)c3c([nH]c4ccccc43)c2C)C1
inactive: [1] 2.9 µM | [2] 13.6 µM | [4] 10.2 µM | [5] 2.4 µM | [19] 12.8 µM | [6] 1.23 µM | [7] 15.1 µM | [8] 13.8 µM | [9] 14.7 µM | [10] 34.2 µM | [11] 4.95 µM | [20] 5.27 µM | [12] 10.8 µM | [13] 13 µM | [14] 2.5 µM | [15] 15.3 µM | [16] 3.62 µM | [17] 13.1 µM

FC1=C2CCCCCC2SC1(F)F (stereo unspecified)
inactive: [1] > 100 µM | [2] > 100 µM | [3] > 100 µM | [4] > 100 µM | [5] 19.1 µM | [19] 3.36 µM | [7] 99.3 µM | [8] > 100 µM | [9] 28.6 µM | [10] 20.1 µM | [11] > 100 µM | [12] 36.6 µM | [13] 26.4 µM | [14] > 100 µM | [15] > 100 µM | [16] > 100 µM | [17] 16.4 µM | [18] > 100 µM

CC(C)(C)OC(=O)N1CCC23CCCC2C(=O)CC=C13 (stereo unspecified)
inactive: [1] > 100 µM | [2] > 100 µM | [3] > 100 µM | [4] > 100 µM | [5] 70.8 µM | [19] 37.9 µM | [6] > 100 µM | [7] 11.8 µM | [8] > 100 µM | [10] > 100 µM | [11] > 100 µM | [20] > 100 µM | [12] > 100 µM | [13] > 100 µM | [14] > 100 µM | [15] > 100 µM | [16] > 100 µM | [17] > 100 µM | [18] > 100 µM

N#CSC#Cc1ccc(C#CSC#N)cc1
inactive: [1] 19.4 µM | [2] 22.6 µM | [4] 21.3 µM | [5] 18.2 µM | [19] 10.1 µM | [6] 19.9 µM | [7] 17.3 µM | [8] 18.2 µM | [9] > 100 µM | [10] 51.5 µM | [11] 15.6 µM | [20] 20.9 µM | [12] 16.6 µM | [13] 20.9 µM | [14] 19.2 µM | [15] 26.2 µM | [16] 15.7 µM | [17] 36.2 µM | [18] 17.2 µM

CCCCCCSC[C@H](OC(C)=O)[C@@H](OC(C)=O)[C@@H](OC(C)=O)[C@@H](COC(C)=O)OC(C)=O
inactive: [1] 41.9 µM | [2] > 100 µM | [3] > 100 µM | [4] > 100 µM | [5] 64.9 µM | [19] 43.6 µM | [6] > 100 µM | [7] > 100 µM | [8] 23.4 µM | [9] 13.3 µM | [11] 27.7 µM | [20] > 100 µM | [12] > 100 µM | [13] > 100 µM | [14] > 100 µM | [15] > 100 µM | [16] > 100 µM | [17] 26.9 µM | [18] > 100 µM

O=C(c1ccc(Cl)cc1)N(C(=S)OCc1ccccn1)c1ccccc1
inactive: [1] > 100 µM | [2] > 100 µM | [4] > 100 µM | [5] > 100 µM | [19] 43.6 µM | [7] 82.6 µM | [8] 58.9 µM | [9] 40.6 µM | [10] > 100 µM | [11] 45.1 µM | [20] 33 µM | [12] 88.1 µM | [13] > 100 µM | [14] 39 µM | [15] > 100 µM | [16] > 100 µM | [17] 41.6 µM | [18] 31 µM

C=CC/N=C(\S)Nc1sc2c(c1C(=O)OCC)CC(C)CC2 (stereo unspecified)
inactive: [1] 34.8 µM | [2] 25.4 µM | [3] 24.3 µM | [4] 26.3 µM | [5] 18.6 µM | [6] 20.8 µM | [7] 20.8 µM | [8] 16.3 µM | [9] 23.1 µM | [10] 18.9 µM | [11] 21.1 µM | [12] 26.3 µM | [13] 32 µM | [14] 31.1 µM | [15] 33.1 µM | [16] 36.6 µM | [17] 28.8 µM | [18] 23.7 µM

CC1(C)N=c2c(ncn2CCO)=C(C(N)=O)N1
inactive: [1] > 100 µM | [2] > 100 µM | [4] > 100 µM | [5] > 100 µM | [19] > 100 µM | [6] > 100 µM | [7] > 100 µM | [8] > 100 µM | [9] > 100 µM | [10] > 100 µM | [11] > 100 µM | [20] > 100 µM | [12] > 100 µM | [13] > 100 µM | [14] > 100 µM | [15] > 100 µM | [16] > 100 µM

COC(=O)c1c(C)nc(C)c(NO)c1-c1ccccc1C(F)(F)F
inactive: [1] 34.7 µM | [2] > 100 µM | [4] > 100 µM | [5] 27.1 µM | [19] 29.2 µM | [6] > 100 µM | [7] 22 µM | [8] 41.7 µM | [9] 15.1 µM | [10] 30.2 µM | [11] 70.5 µM | [20] 16 µM | [12] 17.1 µM | [13] 19.6 µM | [14] 18.2 µM | [15] 20.4 µM | [16] 62.4 µM | [17] 26.1 µM | [18] 29.5 µM

Cc1ccc(C(=O)N(C(C)C)C(C)C)cc1/N=N/N(C)C
inactive: [1] 45.2 µM | [2] > 100 µM | [4] > 100 µM | [5] > 100 µM | [19] > 10 µM | [6] > 100 µM | [7] 57.4 µM | [8] > 100 µM | [9] 33 µM | [10] 41.4 µM | [11] > 100 µM | [20] > 95.7 µM | [12] > 100 µM | [13] > 100 µM | [14] > 100 µM | [15] 41.1 µM | [16] 96.6 µM | [17] 45.3 µM | [18] > 61.4 µM

COc1ccc(NC(=O)C(=O)C(CC2C(=O)NC(=S)NC2=O)C(=O)c2ccc3ccccc3c2)c([N+](=O)[O-])c1 (stereo unspecified)
inactive: [1] > 100 µM | [2] > 100 µM | [3] > 100 µM | [4] > 100 µM | [5] > 100 µM | [19] 8.99 µM | [6] > 100 µM | [7] > 100 µM | [8] > 100 µM | [9] 76.9 µM | [11] > 100 µM | [20] > 100 µM | [12] > 100 µM | [13] > 100 µM | [14] > 100 µM | [15] > 100 µM | [16] > 100 µM | [17] > 100 µM | [18] > 100 µM

O=C1CCc2ccccc2O1 [DIHYDROCOUMARIN]
inactive: [1] > 100 µM | [2] > 100 µM | [3] > 100 µM | [4] > 100 µM | [5] > 100 µM | [19] > 100 µM | [6] > 100 µM | [7] > 100 µM | [9] > 100 µM | [10] > 100 µM | [11] > 100 µM | [12] > 100 µM | [13] > 100 µM | [14] > 100 µM | [15] > 100 µM | [16] > 100 µM | [17] > 100 µM | [18] > 100 µM

CC1=CC(=O)c2ccccc2C1=O [MENADIONE]
inactive: [1] 10.7 µM | [2] 13 µM | [3] 10.2 µM | [4] 17.9 µM | [5] 17.7 µM | [19] 2.03 µM | [6] 11.5 µM | [7] 4.17 µM | [8] 2.18 µM | [9] 1.72 µM | [11] 3.61 µM | [20] 3.61 µM | [12] 19.9 µM | [13] 1.84 µM | [14] 11.9 µM | [15] 4.94 µM | [16] 10.7 µM | [17] 1.77 µM | [18] 2.65 µM
